The source of these data is ChEMBL document CHEMBL4390686, “Design, Synthesis, and Pharmacokinetic Evaluation of Phosphate and Amino Acid Ester Prodrugs for Improving the Oral Bioavailability of the HIV-1 Protease Inhibitor Atazanavir” (J Med Chem, 2019).

Series [1] in a line: physchem. To be noted: HCl buffer, pH 1.
Description: Aqueous solubility of the compound in pH 1 HCl buffer by RP-UPLC analysis
For series [2] the following is noted: rat, in vivo, po, 3 mg/kg.
Series [3] is described as follows: Cmin in cannulated Sprague-Dawley rat assessed as atazanavir level at 30 mg/kg equiv of atazanavir administered orally measured after 24 hrs by UPLC/MS/MS analysis. The format is ADME, organism-based. To be noted: in vivo, po, read-out: Cmin.
The conditions of series [4]: rat, in vivo, po, 3 mg/kg. The source holds these as a separate data set.
Series [5] in a line: Stability in pH 6.5 30%CH3CN/phosphate buffer assessed as parent compound remaining at 50 mM measured after 30 mins by RP-UPLC analysis. It is filed as physicochemical. Conditions: read-out: Stability.
Series [6] is described as follows: Cmin in cannulated Sprague-Dawley rat at 30 mg/kg equiv of atazanavir administered orally measured after 24 hrs by UPLC/MS/MS analysis. The format is ADME, organism-based. To be noted: in vivo, po, BLD = below limit of detection.
The nature of series [7]: physchem. Conditions: 30% CH3CN/HCl buffer, pH 1.
Description: Half life in pH 1 30%CH3CN/HCl buffer at 50 mM by RP-UPLC analysis
Series [8] in a line: Cmin in cannulated Sprague-Dawley rat assessed as atazanavir level at 3 mg/kg equiv of atazanavir administered orally measured after 24 hrs by UPLC/MS/MS analysis. The format is ADME, organism-based. Conditions: in vivo, po, read-out: Cmin.
For series [9] the following is noted: rat, in vivo, po, 3 mg/kg. This is another data set of the same source.
Description: AUClast in cannulated Sprague-Dawley rat assessed as atazanavir level at 3 mg/kg equiv of atazanavir administered orally by UPLC/MS/MS analysis
Series [10] in a line: Cmin in cannulated Sprague-Dawley rat at 3 mg/kg equiv of atazanavir administered orally measured after 24 hrs by UPLC/MS/MS analysis. Conditions: in vivo, po, BLD = below limit of detection. It is filed as ADME, organism-based.
The nature of series [11]: Stability in pH 6.5 30%CH3CN/phosphate buffer assessed as parent compound remaining at 50 mM measured after 2 mins by RP-UPLC analysis. It is filed as physicochemical. To be noted: read-out: Stability.
Series [12] is described as follows: physchem. Conditions: 30% CH3CN/phosphate buffer, pH 6.5.
Description: Half life in pH 6.5 30%CH3CN/phosphate buffer at 50 mM by RP-UPLC analysis
The nature of series [13]: Tmax in cannulated Sprague-Dawley rat assessed as atazanavir level at 30 mg/kg equiv of atazanavir administered orally by UPLC/MS/MS analysis. It is filed as ADME, organism-based. Conditions: in vivo, po.
The nature of series [14]: physchem. To be noted: 30% CH3CN/acetate buffer, pH 4.
Description: Half life in pH 4 30%CH3CN/acetate buffer at 50 mM by RP-UPLC analysis
A short description of series [15]: Cmax in cannulated Sprague-Dawley rat assessed as atazanavir level at 30 mg/kg equiv of atazanavir administered orally by UPLC/MS/MS analysis. The format is ADME, organism-based. Details: dose 30 mg/kg, route oral. Conditions: in vivo, po.
Series [16] is described as follows: AUClast in cannulated Sprague-Dawley rat assessed as atazanavir level at 30 mg/kg equiv of atazanavir administered orally by UPLC/MS/MS analysis. It is filed as ADME, organism-based. Details: dose 30 mg/kg, route oral, time 0 - last. Conditions: in vivo, po.
The nature of series [17]: physchem. Conditions: phosphate buffer, pH 6.5.
Description: Aqueous solubility of the compound in pH 6.5 phosphate buffer by RP-UPLC analysis
Series [18] can be described thus: physchem. Conditions: acetate buffer, pH 4.
Description: Aqueous solubility of the compound in pH 4 acetate buffer by RP-UPLC analysis
The nature of series [19]: Ratio of test compound to atazanavir aqueous solubility in pH 6.5 phosphate buffer by RP-UPLC analysis. The format is physicochemical.
Series [20] can be described thus: in vitro. To be noted: human, Caco-2.
Description: Apparent permeability across apical to basolateral side in human Caco2 cells at 2 uM
The nature of series [21]: physchem. To be noted: phosphate buffer, pH 7.4.
Description: Aqueous solubility of the compound in pH 7.4 phosphate buffer by RP-UPLC analysis
Another series has as its target Protease (Human immunodeficiency virus 1, UniProt Q9YQ12).
Series [22] can be described thus: physchem. To be noted: 30% CH3CN/phosphate buffer, pH 7.4.
Description: Half life in pH 7.4 30%CH3CN/phosphate buffer at 50 mM by RP-UPLC analysis
Series [23] has as its system Human immunodeficiency virus 1.
Description: Antiviral activity against HIV1 NL4-3 infected in human MT2 cells assessed as reduction in viral yield measured after 4 days by EnduRen live cell substrate based luciferase reporter gene assay
Series [24] can be described thus: in vitro. To be noted: human, Caco-2. The source holds these as a separate data set.
Description: Efflux ratio of apparent permeability across basolateral to apical side over apical to basolateral side in human Caco2 cells
Series [25] can be described thus: in vitro. Conditions: human, Caco-2. This is another data set of the same source.
Description: Apparent permeability across basolateral to apical side in human Caco2 cells at 2 uM
The nature of series [26]: Prodrug conversion assessed as recombinant human intestinal alkaline phosphatase-mediated compound dephosphorylation by measuring half life by UPLC-MS/MS analysis. Conditions: isolated protein. The format is ADME.
Series [27] in a line: Prodrug conversion in cannulated Sprague-Dawley rat plasma assessed as atazanavir formation at 3 mg/kg equiv of atazanavir administered orally by UPLC/MS/MS analysis. The format is ADME, organism-based. Conditions: in vivo, po.
Series [28] in a line: Prodrug conversion assessed as recombinant rat intestinal alkaline phosphatase-mediated compound dephosphorylation by measuring half life by UPLC-MS/MS analysis. The format is ADME. Conditions: […].
The nature of series [29]: Half life in pH 2 30%CH3CN solution at 50 mM by RP-UPLC analysis. The format is physicochemical.
Series [30] is described as follows: Prodrug conversion assessed as calf intestinal alkaline phosphatase-mediated compound dephosphorylation by UPLC-MS/MS analysis. It is filed as ADME, Bos taurus. Conditions: cattle, isolated protein.
Series [31] can be described thus: Prodrug conversion assessed as calf intestinal alkaline phosphatase-mediated compound dephosphorylation by measuring half life by UPLC-MS/MS analysis. The format is ADME, Bos taurus. To be noted: cattle, isolated protein.
A short description of series [32]: Drug recovery in intestinal homogenates of closed loop rat intestinal model at 1 mg/kg administered as cassette dose by LC/MS analysis. It is filed as ADME, organism-based, Intestine. To be noted: intestinal homogenate, other: closed loop intestinal model, read-out: Drug recovery.
A short description of series [33]: Drug recovery in mesenteric vein plasma of closed loop rat intestinal model at 1 mg/kg administered as cassette dose by LC/MS analysis. Conditions: in vivo. The format is ADME, organism-based.
Series [34] can be described thus: Drug recovery in intestinal content of closed loop rat intestinal model at 1 mg/kg administered as cassette dose by LC/MS analysis. The format is ADME, organism-based. To be noted: in vivo.

Values after ≈ are worked out from the molar mass of the structure shown.

Sequence of Protease (Q9YQ12 whole entry): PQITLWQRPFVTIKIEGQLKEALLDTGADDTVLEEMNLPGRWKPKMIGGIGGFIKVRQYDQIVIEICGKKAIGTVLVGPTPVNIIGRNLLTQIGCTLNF
Description for Protease: Inhibition of HIV1 protease activity

The compound `COC(=O)N[C@H](C(=O)N[C@@H](Cc1ccccc1)[C@H](CN(Cc1ccc(-c2ccccn2)cc1)NC(=O)[C@@H](NC(=O)OC)C(C)(C)C)OC(=O)CN(C)C(=O)[C@@H](N)Cc1ccccc1)C(C)(C)C.Cl.Cl` registered a solubility in “physchem [1]” of 1170 µg/mL. Besides, the Cmax in series [2] was 794 nM; in series [15] it was 8760 nM. The figures for the concentration in series [3] and in series [8] were 30.4 nM and 1.9 nM, respectively. The Tmax in [4] and in series [13] was 1 h throughout. In [5], the remaining at 0.5 h, 50000 µM is 2%. Moreover, the Cmin result in series [6] and in series [10] was “Bld” throughout. The half-life at 50000 µM in “physchem [7]” was above 500 h; in the series “physchem [12]”, 0.08 h; in “physchem [14]”, 9.03 h. Moreover, the AUClast worked out at 1.533 µM·h in [9] and 16.58 µM·h in [16]. Moreover, the remaining at 2 min, 50000 µM in [11] was determined as 86.1%.
As for `COC(=O)N[C@H](C(=O)N[C@@H](Cc1ccccc1)[C@H](CN(Cc1ccc(-c2ccccn2)cc1)NC(=O)[C@@H](NC(=O)OC)C(C)(C)C)OC(=O)CNC(=O)[C@@H](N)Cc1ccccc1)C(C)(C)C`, the solubility in “physchem [17]” is above 640 µg/mL; in “physchem [1]”, above 2900 µg/mL; in “physchem [18]”, above 3500 µg/mL. Besides, the Cmax in series [2] turned out to be 9 nM. In series [4], the Tmax is 0.4 h. For the same compound, the half-life at 50000 µM was above 500 h in the series “physchem [7]”, 73.4 h in “physchem [12]” and above 500 h in the series “physchem [14]”. Moreover, in series [9], the AUClast came to 0.016 µM·h. Also, in series [19], the Ratio is above 200.
Consider `COC(=O)N[C@H](C(=O)N[C@@H](Cc1ccccc1)[C@H](CN(Cc1ccc(-c2ccccn2)cc1)NC(=O)[C@@H](NC(=O)OC)C(C)(C)C)OC(=O)CN(C)C)C(C)(C)C`, for which, in the series “in vitro [20]”, the Papp A→B at 2 µM was below 1.5 ×10⁻⁶ cm/s. In addition, the results for the solubility in the series “physchem [1]”, in the series “physchem [21]” and in the series “physchem [18]” were above 1400 µg/mL, 360 µg/mL (≈ 456 µM) and above 1700 µg/mL, respectively. The IC50 against Protease is 4 to 1140 nM. The half-life at 50000 µM in the series “physchem [22]” was 188 h; in the series “physchem [7]”, above 500 h; in the series “physchem [14]” it was above 500 h. This compound came in with a Cmax in series [2] of 66.8 nM. The same compound showed an EC50 in series [23] of 0.9 to 1250 nM. Moreover, in series [4], the Tmax is 0.3 h. In addition, in the series “in vitro [24]”, the efflux ratio is above 8.8. The AUClast in series [9] stood at 0.0457 µM·h. This compound also displayed a Papp B→A at 2 µM in “in vitro [25]” of 13.2 ×10⁻⁶ cm/s.
For the compound `COC(=O)N[C@H](C(=O)N[C@@H](Cc1ccccc1)[C@H](CN(Cc1ccc(-c2ccccn2)cc1)NC(=O)[C@@H](NC(=O)OC)C(C)(C)C)OC(=O)CNC(=O)[C@H](N)Cc1ccccc1)C(C)(C)C`, the solubility in “physchem [17]” was 230 µg/mL (≈ 253 µM); in the series “physchem [1]”, above 2100 µg/mL; in “physchem [18]”, above 2300 µg/mL. The same compound yielded a Cmax in series [2] of 51 nM. Besides, the time to peak (Tmax) in [4] came out at 0.5 h. In addition, the half-life at 50000 µM in the series “physchem [7]” was above 500 h; in “physchem [12]” it was 88.5 h; in the series “physchem [14]” it was above 500 h. In addition, the AUClast in series [9] turned out to be 0.307 µM·h. In addition, the Ratio in series [19] is given as above 200.
For the compound `COC(=O)N[C@H](C(=O)N[C@@H](Cc1ccccc1)[C@H](CN(Cc1ccc(-c2ccccn2)cc1)NC(=O)[C@@H](NC(=O)OC)C(C)(C)C)OCOP(=O)([O-])[O-])C(C)(C)C.[Na+].[Na+]`, the t1/2 is 0.35 h in [26] and above 0.167 h in series [28]. Further, the solubility was above 1060 µg/mL in “physchem [17]” and above 930 µg/mL in the series “physchem [18]”. In series [2], this compound had a Cmax of 257 nM. Moreover, in series [4], the Tmax was found to be 0.25 h. Also, the Drug metabolism entry in series [27] is given as “Metabolite_Detected”. Also, the half-life at 50000 µM is 0.2 h in “physchem [7]”, 1.95 h in series [29], above 500 h in “physchem [12]” and above 500 h in “physchem [14]”. Further, the AUClast in series [9] was 0.277 µM·h.
As to `Cc1cccc(C)c1OCC(=O)N[C@@H](Cc1ccccc1)[C@H](C[C@H](Cc1ccccc1)NC(=O)[C@H](C(C)C)N1CCCNC1=O)OP(=O)(O)O`, the Drug metabolism result in [30] and in series [27] was “Metabolite_Notdetected” in each case.
Regarding `COC(=O)N[C@H](C(=O)N[C@@H](Cc1ccccc1)[C@H](CN(Cc1ccc(-c2ccccn2)cc1)NC(=O)[C@@H](NC(=O)OC)C(C)(C)C)OP(=O)(O)O)C(C)(C)C`, the t1/2 in series [26] and in series [28] was above 2 h each time. Further, the solubility was above 2870 µg/mL in the series “physchem [17]”, above 2650 µg/mL in “physchem [1]” and 250 µg/mL (≈ 319 µM) in “physchem [18]”. Moreover, the Drug metabolism entry in series [27] is reported as “Metabolite_Notdetected”. Moreover, the half-life at 50000 µM in “physchem [7]” was 334 h; in the series “physchem [12]”, 250 h; in “physchem [14]”, 334 h.
As to `CC(C)CN(C[C@@H](OP(=O)(O)O)[C@H](Cc1ccccc1)NC(=O)O[C@H]1CCOC1)S(=O)(=O)c1ccc(N)cc1` [FOSAMPRENAVIR], the Drug metabolism result in series [30] and in series [27] was “Metabolite_Notdetected” each time.
As for `Cc1cccc(C)c1OCC(=O)N[C@@H](Cc1ccccc1)[C@@H](O)C[C@H](Cc1ccccc1)NC(=O)[C@H](C(C)C)N1CCCNC1=O` [LOPINAVIR], the t1/2 in [31] is 0.22 h. Moreover, the Drug metabolism result in [27] is reported as “Metabolite_Detected”.
Consider `CC(C)(C)NCC(O)COc1cccc2c1CC(O)C(O)C2` (stereo not given) [NADOLOL], for which the recovery in series [32] is 14%. Moreover, the results for the Drug recovery in [33] and in series [34] were 1.3% and 45%, respectively.
